Reference: patent publication EP0970046B1, “N-HYDROXY-2-(ALKYL, ARYL, OR HETEROARYL SULFANYL, SULFINYL OR SULFONYL)-3-SUBSTITUTED ALKYL, ARYL OR HETEROARYLAMIDES AS MATRIX METALLOPROTEINASE INHIBITORS” (Wyeth Holdings Corporation, priority 1997, dated 1998)
pIC50: −log10 of the molar value. Counter-ions that a name gives are not always drawn. Like-named read-outs stand apart in the source and are kept apart here.

Tests used:
Assay type in all cases: biochemical
MMP 13 [1] = biological target: T1, MMP 13 (Homo sapiens, UniProt P45452); assay: MMP 13 inhibition (IC50 / manual assay; method not described); details: read-out: MMP 13 IC 50
TACE = biological target: T2, TACE (Homo sapiens, UniProt P78536); assay: Procedure for Measuring TACE Inhibition; details: for pIC50: read-out: TACE IC 50
T2 construct: purchased Immunex
Outline: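 Single-concentration screen: test compound at 1 µM final, 10-min room-temperature preincubation with 1 µg/mL protease in Tris pH 7.4 buffer containing glycerol. Initial rate from linear fluorescence increase (340/420 nm) over 10 min after adding 100 µM peptidyl substrate; significance versus control rate by Dunnett's test.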

MMP 1 = biological target: T3, MMP 1 (Homo sapiens, UniProt P03956); assay: In Vitro Collagenase Assay; details: for pIC50: read-out: MMP 1 IC 50; for inhibition at 1 µM: read-out: MMP 1 % inhibition at 1 micromolar, 1 micromolar
T3 construct: human recombinant fibroblast collagenase (truncated, mw= 18,828, WAR, Radnor)
T3 sequence (P03956 100-269 limits assumed): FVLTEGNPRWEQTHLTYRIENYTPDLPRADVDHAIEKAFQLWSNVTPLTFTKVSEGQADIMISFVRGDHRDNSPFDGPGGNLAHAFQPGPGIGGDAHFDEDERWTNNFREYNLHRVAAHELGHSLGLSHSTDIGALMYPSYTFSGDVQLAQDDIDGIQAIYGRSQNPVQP
Experimental: The assay is based on the cleavage of a peptide substrate ((Dnp-Pro-Cha-Gly-Cys(Me)-His-Ala-Lys(NMa)-NH2), Peptide International, Inc.) by collagenase releasing the fluorescent NMa group which is quantitated on the fluorometer. Dnp quenches the NMa fluorescence in the intact substrate. […] Substrate is dissolved in methanol and stored frozen in 1 mM aliquots. […] For the assay, substrate is dissolved in HCBC buffer to a final concentration of 10 µM and collagenase to a final concentration of 5 nM. Compounds are dissolved in methanol, DMSO, or HCBC. The methanol and DMSO are diluted in HCBC to < 1.0%. Compounds are added to the 96 well plate containing enzyme and the reaction is started by the addition of substrate.
The slope of the line is calculated and represents the reaction rate.
The linearity of the reaction rate is confirmed (r^2 >0.85). The mean (x ± sem) of the control rate is calculated and compared for statistical significance (p <0.05) with drug-treated rates using Dunnett's multiple comparison test.

MMP 9 = biological target: T4, MMP 9 (Homo sapiens, UniProt P14780); assay: In Vitro Gelatinase Assay; details: for pIC50: read-out: MMP 9 IC 50; for inhibition at 1 µM: read-out: MMP 9 % inhibition at 1 micromolar, 1 micromolar
T4 construct: from tissue; host or cells: human neutrophils
Experimental: The assay is based on the cleavage of the thiopeptide substrate ((Ac-Pro-Leu-Gly(2 mercapto-4 methyl-pentanoyl)-Leu-Gly-OEt), Bachem Bioscience) by the enzyme, gelatinase, releasing the substrate product which reacts colorimetrically with DTNB ((5,5'-dithio-bis(2-nitro-benzoic acid)). The enzyme activity is measured by the rate of the color increase. The thiopeptide substrate is made up fresh as a 20 mM stock in 100% DMSO and the DTNB is dissolved in 100% DMSO as a 100 mM stock and stored in dark at room temperature. Both the substrate and DTNB are diluted together to 1 mM with substrate buffer (50 mM HEPES pH 7.5, 5 mM CaCl2) before use. […] The increase in OD405 is plotted and the slope of the line is calculated which represents the reaction rate. The linearity of the reaction rate is confirmed (r^2 >0.85). The mean (x ± sem) of the control rate is calculated and compared for statistical significance (p <0.05) with drug-treated rates using Dunnett's multiple comparison test.

MMP 13 [2] = biological target: T1, MMP 13; assay: MMP 13 inhibition (HTS; method not described); details: HTS
[3] = human recombinant fibroblast collagenase
[4] = read-out: TACE % inhibition at 1 micromolar

T2 sequence (P78536 215-824): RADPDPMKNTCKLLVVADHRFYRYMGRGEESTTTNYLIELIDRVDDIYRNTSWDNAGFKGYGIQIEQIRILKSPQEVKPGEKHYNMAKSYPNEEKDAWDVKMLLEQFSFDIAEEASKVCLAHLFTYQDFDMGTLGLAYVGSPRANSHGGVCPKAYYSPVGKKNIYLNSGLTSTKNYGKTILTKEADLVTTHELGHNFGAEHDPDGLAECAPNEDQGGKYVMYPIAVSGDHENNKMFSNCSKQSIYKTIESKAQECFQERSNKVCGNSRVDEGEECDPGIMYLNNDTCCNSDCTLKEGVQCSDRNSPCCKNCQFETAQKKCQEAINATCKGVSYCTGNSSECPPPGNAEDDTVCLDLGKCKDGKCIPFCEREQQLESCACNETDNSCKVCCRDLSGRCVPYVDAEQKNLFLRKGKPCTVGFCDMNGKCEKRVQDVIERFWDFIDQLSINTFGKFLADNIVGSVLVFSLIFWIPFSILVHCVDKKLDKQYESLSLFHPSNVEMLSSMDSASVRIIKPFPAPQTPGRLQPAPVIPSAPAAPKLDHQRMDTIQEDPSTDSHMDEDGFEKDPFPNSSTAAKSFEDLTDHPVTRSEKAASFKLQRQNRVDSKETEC
T4 sequence (P14780 94-707): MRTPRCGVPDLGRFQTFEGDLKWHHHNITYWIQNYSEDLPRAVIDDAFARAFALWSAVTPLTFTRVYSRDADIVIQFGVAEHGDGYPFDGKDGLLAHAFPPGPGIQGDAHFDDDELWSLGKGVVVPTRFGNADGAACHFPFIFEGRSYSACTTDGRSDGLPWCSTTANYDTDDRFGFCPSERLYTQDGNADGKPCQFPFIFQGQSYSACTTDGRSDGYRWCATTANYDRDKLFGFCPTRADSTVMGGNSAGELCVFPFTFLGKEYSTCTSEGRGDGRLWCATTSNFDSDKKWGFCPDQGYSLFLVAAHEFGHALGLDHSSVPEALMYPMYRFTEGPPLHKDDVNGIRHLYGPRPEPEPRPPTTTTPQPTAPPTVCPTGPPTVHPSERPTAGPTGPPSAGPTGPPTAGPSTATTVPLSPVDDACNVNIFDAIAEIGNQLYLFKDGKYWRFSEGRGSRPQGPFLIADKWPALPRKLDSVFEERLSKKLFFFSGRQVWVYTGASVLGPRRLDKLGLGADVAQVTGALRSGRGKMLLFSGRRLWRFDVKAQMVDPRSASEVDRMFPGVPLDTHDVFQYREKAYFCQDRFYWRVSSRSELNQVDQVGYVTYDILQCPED

Row | SMILES | pIC50 (MMP 1; [3]) | inhibition at 1 µM (TACE; [4]) | pIC50 (MMP 9; human neutrophil gelatinase B) | also measured
1 | CCCCOc1ccc(S(=O)(=O)C2(C(=O)NO)CCN(Cc3ccc(OC)cc3)CC2)cc1 [Example 104, 4-(4-n-Butoxy-benzenesulfonyl)-1-(4-methoxy-benzyl)-piperidine-4-carboxylic acid hydroxyamide] | – | – | – | pIC50 (MMP 13 [1]): 8.85; pIC50 (TACE): 6.68
2 | COc1ccc(S(=O)(=O)C2(C(=O)NO)CCN(Cc3ccc(-c4ccccc4)cc3)CC2)cc1 [Example 88, 1-Biphenyl-4-ylmethyl-4-(4-methoxy-benzenesulfonyl)piperidine-4-carboxylic acid hydroxamide] | – | – | – | pIC50 (MMP 1): 5.88; pIC50 (MMP 9): 7.89
3 | COc1ccc(S(=O)(=O)C2(C(=O)NO)CCN(Cc3ccc(Br)cc3)CC2)cc1 [Example 90, 1-(4-Bromo-benzyl)-4-(4-methoxy-benzenesulfonyl)-piperidine-4-carboxylic acid hydroxyamide] | – | – | 7.99 | –
4 | CCCCOc1ccc(S(=O)(=O)C2(C(=O)NO)CCN(CCCOc3ccccc3)CC2)cc1 [Example 106, 4-(4-n-Butoxy-benzenesulfonyl)-1-(3-phenoxy-propyl)-piperidine-4-carboxylic acid hydroxyamide] | 5.42 | – | 8.29 | pIC50 (TACE): 6.20
5 | COc1ccc(S(=O)(=O)C(C)(Cc2ccc(OCCN3CCOCC3)cc2)C(=O)NO)cc1 (stereo not shown) [Example 82, 2-(4-methoxy-benzenesulfonyl)-2-methyl-3-[4-(2-morpholin-4-yl-ethoxy)-phenyl]-propionic hydroxyamide hydrochloride] | 6.62 | 34.5% | 7.71 | –
6 | CCCCC(Cc1cccnc1)(C(=O)NO)S(=O)(=O)c1ccc(OC)cc1 (stereo not shown) [Example 70, 2-(4-Methoxy-benzenesulfonyl)-2-pyridin-3-ylmethyl-hexanoic acid hydroxyamide] | – | – | – | inhibition at 1 µM (MMP 9; human neutrophil gelatinase B): 88.8%; pIC50 (TACE): 6.12
7 | CC(Cc1ccc(OCCN2CCCCC2)cc1)(C(=O)NO)S(=O)(=O)c1cccs1 (stereo not shown) [Example 45] | – | 20.4% | – | inhibition at 1 µM (MMP 1; [3]): 49%; inhibition at 1 µM (MMP 9; human neutrophil gelatinase B): 48.6%
8 | CCCCOc1ccc(S(=O)(=O)C(C)(Cc2ccc(OCCN3CCCCC3)cc2)C(=O)NO)cc1 (stereo not shown) [Example 28, N-Hydroxy-2-(4-n-butoxy-benzenesulfonyl)-2-methyl-3-[4-(2-piperidin-1-yl-ethoxy)-phenyl]-propionamide] | – | 30.6% | – | pIC50 (MMP 13 [1]): 8.70
9 | CCCCOc1ccc(S(=O)(=O)C2(C(=O)NO)CCN(Cc3ccccc3)CC2)cc1 [Example 98, 1-Benzyl-4-(4-butoxy-benzenesulfonyl)-piperidine-4-carboxylic acid hydroxyamide] | – | – | – | pIC50 (MMP 13 [1]): 8.92
10 | CCCCC(C(=O)NO)S(=O)(=O)c1ccc(OC)cc1 (stereo not shown) [Example 10, 2-(4-Methoxy-benzenesulfonyl)-hexanoic acid hydroxyamide] | – | 54.8% | – | inhibition at 1 µM (MMP 1; [3]): 8%
11 | CCCCOc1ccc(S(=O)(=O)C2(C(=O)NO)CCN(CCOc3ccccc3)CC2)cc1 [Example 108, 4-(4-n-Butoxy-benzenesulfonyl)-1-(2-phenoxy-ethyl)-piperidine-4-carboxylic acid hydroxyamide] | 5.54 | – | 8.27 | pIC50 (TACE): 6.57
12 | C#CCC(CC#C)(C(=O)NO)S(=O)(=O)c1ccc(OC)cc1 [Example 73, 2-(4-Methoxy-benzenesulfonyl)-2-prop-2-ynyl-pent-4-ynoic acid hydroxyamide] | 6.52 | 20.2% | – | –
13 | COc1ccc(S(=O)(=O)C(CC=C(C)C)(CC=C(C)C)C(=O)NO)cc1 [Example 79, 2-(4-Methoxy-benzenesulfonyl)-5-methyl-2-(3-methyl-but-2-enyl)-hex-4-enoic acid hydroxyamide] | 7.60 | – | 9.27 | pIC50 (TACE): 6.09
14 | CCCCN1CCC(C(=O)NO)(S(=O)(=O)c2ccc(OC)cc2)CC1 [Example 93, 1-Butyl-4-(4-methoxy-benzenesulfonyl)-piperidine-4-carboxylic acid hydroxyamide] | – | 15.8% | – | inhibition at 1 µM (MMP 1; [3]): 56.3%
15 | CCCCCCCCCCCCC(C(=O)NO)S(=O)(=O)c1ccc(OC)cc1 (stereo not shown) [Example 11, 2-(4-Methoxy-benzenesulfonyl)-tetradecanoic hydroxyamide] | – | – | – | inhibition at 1 µM (MMP 1; [3]): 18.8%; pIC50 (TACE): 6.03
16 | COc1ccc(S(=O)(=O)C(C(=O)NO)C(C)C)cc1 (stereo not shown) [Example 53, N-Hydroxy-2-(4-methoxy-benzenesulfonyl)-3-methyl-butyramide] | – | 52.6% | – | inhibition at 1 µM (MMP 9; human neutrophil gelatinase B): 27.8%
17 | COc1ccc(S(=O)(=O)C2(C(=O)NO)CCN(C3CCCCCCC3)CC2)cc1 [Example 94, 1-Cyclooctyl-4-(4-methoxy-benzenesulfonyl)-piperidine-4-carboxylic acid hydroxyamide] | 5.58 | – | 6.86 | –
18 | CCCCCCC(C(=O)NO)[S+]([O-])c1nc(-c2ccccc2)cs1 (stereo not shown) [Example 179, 2-(4-Phenyl-thiazole-2-sulfinyl)-octanoic acid hydroxyamide] | – | – | – | inhibition at 0.036 µM (MMP 13 [2]; read-out: MMP 13 % inhibition at 36 nM (HTS), 36 nM): 12%; inhibition at 1 µM (TACE; read-out: TACE % inhibition at 1 µM, 1 µM, Examples 169-240): 42.7%
19 | CC(C)CCSC(C)C(=O)NO (stereo not shown) [Example 112, N-Hydroxy-2-(3-methyl-butane-1-sulfanyl)-propionamide] | – | – | – | MMP 13 % inhibition at 0.2 µM (HTS) (MMP 13 [2]; 0.2 µM): 50%; TACE % inhibition at 1 µM (TACE; 1 µM, Examples 110-168): 33.7%

Now from value to compound, other results behind:

Row | pIC50 (MMP 1; [3]) | inhibition at 1 µM (TACE; [4]) | pIC50 (MMP 9; human neutrophil gelatinase B) | SMILES | also measured
20 | 7.00 | 15.5% | – | COc1ccc(S(=O)(=O)C(C)(Cc2ccccc2)C(=O)NO)cc1 (stereo not shown) [Example 12, N-Hydroxy-2-(4-methoxy-benzenesulfonyl)-2-methyl-3-phenyl-propionamide] | –
21 | 6.62 | 41% | 8.05 | COc1ccc(S(=O)(=O)C(C)(Cc2ccc(OCCN3CCCCC3)cc2)C(=O)NO)cc1 (stereo not shown) [Example 17, N-Hydroxy-2-(4-methoxy-benzenesulfonyl)-2-methyl-3-[4-(2-piperidin-1-yl-ethoxy)-phenyl]-propionamide] | –
22 | – | 24.9% | – | CCCC(CCC)(C(=O)NO)S(=O)(=O)c1ccc(OC)cc1 [Example 59, 2-(4-methoxy-benzenesulfonyl)-2-propyl-pentanoic acid hydroxyamide] | inhibition at 1 µM (MMP 1; [3]): 30.2%
23 | 6.80 | 17.2% | 7.64 | COc1ccc(S(=O)(=O)C(C)(Cc2ccc(-c3ccccc3)cc2)C(=O)NO)cc1 (stereo not shown) [Example 14, 3-(Biphenyl-4-yl)-N-hydroxy-2-(4-methoxy-benzenesulfonyl)-2-methyl-propionamide] | –
24 | 6.86 | – | 8.10 | COc1ccc(S(=O)(=O)C(C)(Cc2ccc3ccccc3c2)C(=O)NO)cc1 (stereo not shown) [Example 52, N-hydroxy-2-(4-methoxy-benzenesulfonyl)-2-methyl-3-naphthalen-2-yl-propionamide] | –
25 | 6.27 | 29.2% | 7.72 | COc1ccc(S(=O)(=O)C(C)(Cc2ccc(OCCN3CCCCCC3)cc2)C(=O)NO)cc1 (stereo not shown) [Example 18, 2-[4-(2-Azepan-1-yl-ethoxy)-benzyl]-2-(4-methoxy-benzenesulfonyl)-propionic acid hydroxyamide] | –
26 | – | 23.6% | 6.74 | COc1ccc(S(=O)(=O)C(Cc2ccccc2)(Cc2ccccc2)C(=O)NO)cc1 [Example 60, 2-benzyl-N-hydroxy-2-(4-methoxy-benzenesulfonyl)-3-phenyl-propionamide] | –
27 | 5.71 | – | 7.88 | COc1ccc(S(=O)(=O)C2(C(=O)NO)CCN(CCCc3ccccc3)CC2)cc1 [Example 91, 4-(4-methoxy-benzenesulfonyl)-1-(3-phenyl-propyl)-piperidine-4-carboxylic acid hydroxyamide] | pIC50 (TACE): 6.30
